Experimental data: patent US11000033B2, “Ketone or oxime compound, and herbicide” (NISSAN CHEMICAL CORPORATION, priority 2014, dated 2021)

Columns and labels:
Assay type in all cases: in vivo
[1] = tested on: Echinochloa crus-galli var. crus-galli; assay: Test Example 5: herbicidal effect by foliage application, plastic box (symbol H); settings: 320 g/ha, 3 weeks after application
Description: (§1) Herbicidal Effect Test by Foliage Application
(§2) Sterilized diluvial soil was placed in a plastic box having a length of 21 cm, a width of 13 cm, and a depth of 7 cm. Each of the seeds of Digitaria ciliaris, Setaria viridis, Echinochloa crus-galli var. crus-galli, Avena fatua, Alopecurus myosuroides, Lolium multiflorum Lam., Apera spica-venti, Abutilon theophrasti, Amaranthus retroflexus, Chenopodium album, Stellaria media, Galium spurium, Veronica persica, corn, soybean, rice plant, wheat, beet, and rapeseed was sowed in a spot-like manner and was covered with the soil of a thickness of about 1.5 cm. Thereafter, the plants were grown in the greenhouse of 25° C. to 30° C. After the plants were grown for 14 days, the emulsion agent of the compound of the present invention prepared in accordance with Formulation Example 2 was diluted with water so as to be a predetermined herbicide amount and the diluted emulsion agent was uniformly applied to a foliage part with a small-size spray. 3 weeks later from the herbicide application, the effect to each plant was investigated in accordance with the criteria of Test Example 1.

Setaria viridis = assay: Test Example 5: herbicidal effect by foliage application, plastic box (symbol G); settings: 320 g/ha, 3 weeks after application
Description: as §1, §2

beet = assay: Test Example 5: effect on crop by foliage application, plastic box (symbol f); settings: 320 g/ha, 3 weeks after application
Description: as §1
(§3) Sterilized diluvial soil was placed in a plastic box having a length of 21 cm, a width of 13 cm, and a depth of 7 cm. Each of the seeds of Digitaria ciliaris, Setaria viridis, Echinochloa crus-galli var. crus-galli, Avena fatua, Alopecurus myosuroides, Lolium multiflorum Lam., Apera spica-venti, Abutilon theophrasti, Amaranthus retroflexus, Chenopodium album, Stellaria media, Galium spurium, Veronica persica, corn, soybean, rice plant, wheat, beet, and rapeseed was sowed in a spot-like manner and was covered with the soil of a thickness of about 1.5 cm. Thereafter, the plants were grown in the greenhouse of 25° C. to 30° C.

Veronica persica = assay: Test Example 5: herbicidal effect by foliage application, plastic box (symbol R); settings: 320 g/ha, 3 weeks after application
Description: as §1, §2

Chenopodium album = assay: Test Example 5: herbicidal effect by foliage application, plastic box (symbol O); settings: 320 g/ha, 3 weeks after application
Description: as §1, §2

rapeseed = assay: Test Example 5: effect on crop by foliage application, plastic box (symbol g); settings: 320 g/ha, 3 weeks after application
Description: as §1, §3

Leptochloa chinensis = assay: Test Example 3: herbicidal effect by foliage application, Wagner pot (symbol D); settings: application herbicide amount 320 g/ha
Experimental: as §1
(§4) After alluvial soil was placed into 1/10000 are of Wagner pot, water was poured and mixed to form a submerged condition having a water depth of 0.1 cm to 0.5 cm. Seeds of Echinochloa crus-galli var. crus-galli, Leptochloa chinensis, Cyperus difformis, and rice were sowed and the pot was placed in the greenhouse of 25° C. to 30° C. to grow the plants. After the plants were grown for 14 days, the emulsion agent of the compound of the present invention prepared in accordance with Formulation Example 2 was diluted with water so as to be a predetermined herbicide amount and the diluted emulsion agent was uniformly applied to a foliage part with a small-size spray. 3 weeks later from the herbicide application, the effect to each plant was investigated in accordance with the criteria of Test Example 1.

corn = assay: Test Example 5: effect on crop by foliage application, plastic box (symbol c); settings: 320 g/ha, 3 weeks after application
Description: as §1, §3

rice plant = assay: Test Example 5: effect on crop by foliage application, plastic box (symbol b); settings: 320 g/ha, 3 weeks after application
Description: as §1, §3

Galium spurium = assay: Test Example 5: herbicidal effect by foliage application, plastic box (symbol Q); settings: 320 g/ha, 3 weeks after application
Description: as §1, §2

Alopecurus myosuroides = assay: Test Example 5: herbicidal effect by foliage application, plastic box (symbol J); settings: 320 g/ha, 3 weeks after application
Description: as §1, §2

Stellaria media = assay: Test Example 5: herbicidal effect by foliage application, plastic box (symbol P); settings: 320 g/ha, 3 weeks after application
Description: as §1, §2

Lolium multiflorum Lam. = assay: Test Example 5: herbicidal effect by foliage application, plastic box (symbol K); settings: 320 g/ha, 3 weeks after application
Description: as §1, §2

Digitaria ciliaris = assay: Test Example 5: herbicidal effect by foliage application, plastic box (symbol F); settings: 320 g/ha, 3 weeks after application
Description: as §1, §2

Abutilon theophrasti = assay: Test Example 5: herbicidal effect by foliage application, plastic box (symbol M); settings: 320 g/ha, 3 weeks after application
Description: as §1, §2

Apera spica-venti = assay: Test Example 5: herbicidal effect by foliage application, plastic box (symbol L); settings: 320 g/ha, 3 weeks after application
Description: as §1, §2

[2] = tested on: Echinochloa crus-galli var. crus-galli; assay: Test Example 3: herbicidal effect by foliage application, Wagner pot (symbol H); settings: application herbicide amount 320 g/ha
Experimental: as §1, §4

Avena fatua = assay: Test Example 5: herbicidal effect by foliage application, plastic box (symbol I); settings: 320 g/ha, 3 weeks after application
Description: as §1, §2

wheat = assay: Test Example 5: effect on crop by foliage application, plastic box (symbol e); settings: 320 g/ha, 3 weeks after application
Description: as §1, §3

soybean = assay: Test Example 5: effect on crop by foliage application, plastic box (symbol d); settings: 320 g/ha, 3 weeks after application
Description: as §1, §3

[3] = tested on: directly sowed rice plant; assay: Test Example 3: effect on crop by foliage application, Wagner pot (symbol b); settings: application herbicide amount 320 g/ha
Experimental: as §1
After alluvial soil was placed into 1/10000 are of Wagner pot, water was poured and mixed to form a submerged condition having a water depth of 0.1 cm to 0.5 cm. Seeds of Echinochloa crus-galli var. crus-galli, Leptochloa chinensis, Cyperus difformis, and rice were sowed and the pot was placed in the greenhouse of 25° C. to 30° C. to grow the plants.

Amaranthus retroflexus = assay: Test Example 5: herbicidal effect by foliage application, plastic box (symbol N); settings: 320 g/ha, 3 weeks after application
Description: as §1, §2

Compound: CON=C(C)CC1CC(O)=C(c2c(C)cc(-c3ccncc3)cc2C)C1=O (stereo not shown) [6-105]
- H: Echinochloa crus-galli var. crus-galli, herbicidal effect (criteria of Test Example 1) [1]: 5 (Herbicidal ratio of 90% or more (almost completely withered))
- G: Setaria viridis, herbicidal effect (criteria of Test Example 1) (Setaria viridis): 5 (Herbicidal ratio of 90% or more (almost completely withered))
- f: beet, effect on crop (criteria of Test Example 1) (beet): 0 (Herbicidal ratio of 5% or lower (almost no effect))
- R: Veronica persica, herbicidal effect (criteria of Test Example 1) (Veronica persica): 3 (Herbicidal ratio of 40% or higher and lower than 70%)
- O: Chenopodium album, herbicidal effect (criteria of Test Example 1) (Chenopodium album): 0 (Herbicidal ratio of 5% or lower (almost no effect))
- g: rapeseed, effect on crop (criteria of Test Example 1) (rapeseed): 4 (Herbicidal ratio of 70% or higher and lower than 90%)
- herbicidal effect on D (Leptochloa chinensis), grade 0-5 (Leptochloa chinensis): 4 (Herbicidal ratio of 70% or higher and lower than 90%)
- c: corn, effect on crop (criteria of Test Example 1) (corn): 3 (Herbicidal ratio of 40% or higher and lower than 70%)
- b: directly sowed rice plant, effect on crop (criteria of Test Example 1) (rice plant): 3 (Herbicidal ratio of 40% or higher and lower than 70%)
- Q: Galium spurium, herbicidal effect (criteria of Test Example 1) (Galium spurium): 3 (Herbicidal ratio of 40% or higher and lower than 70%)
- J: Alopecurus myosuroides, herbicidal effect (criteria of Test Example 1) (Alopecurus myosuroides): 2 (Herbicidal ratio of 20% or higher and lower than 40%)
- P: Stellaria media, herbicidal effect (criteria of Test Example 1) (Stellaria media): 0 (Herbicidal ratio of 5% or lower (almost no effect))
- K: Lolium multiflorum Lam., herbicidal effect (criteria of Test Example 1) (Lolium multiflorum Lam.): 4 (Herbicidal ratio of 70% or higher and lower than 90%)
- F: Digitaria ciliaris, herbicidal effect (criteria of Test Example 1) (Digitaria ciliaris): 5 (Herbicidal ratio of 90% or more (almost completely withered))
- M: Abutilon theophrasti, herbicidal effect (criteria of Test Example 1) (Abutilon theophrasti): 0 (Herbicidal ratio of 5% or lower (almost no effect))
- L: Apera spica-venti, herbicidal effect (criteria of Test Example 1) (Apera spica-venti): 2 (Herbicidal ratio of 20% or higher and lower than 40%)
- herbicidal effect on H (Echinochloa crus-galli var. crus-galli), grade 0-5 [2]: 3 (Herbicidal ratio of 40% or higher and lower than 70%)
- I: Avena fatua, herbicidal effect (criteria of Test Example 1) (Avena fatua): 2 (Herbicidal ratio of 20% or higher and lower than 40%)
- e: wheat, effect on crop (criteria of Test Example 1) (wheat): 0 (Herbicidal ratio of 5% or lower (almost no effect))
- d: soybean, effect on crop (criteria of Test Example 1) (soybean): 0 (Herbicidal ratio of 5% or lower (almost no effect))
- effect on crop b (directly sowed rice plant), grade 0-5 [3]: 4 (Herbicidal ratio of 70% or higher and lower than 90%)
- N: Amaranthus retroflexus, herbicidal effect (criteria of Test Example 1) (Amaranthus retroflexus): 0 (Herbicidal ratio of 5% or lower (almost no effect))

Compound: CON=C(C)CC1CC(OC(=O)N(c2ccccc2)C(C)C)=C(c2c(C)cc(C)cc2C)C1=O (stereo not shown) [1-127]
- H: Echinochloa crus-galli var. crus-galli, herbicidal effect (criteria 0-5) [1]: 0 (Herbicidal ratio of 5% or lower (almost no effect))
- G: Setaria viridis, herbicidal effect (criteria 0-5) (Setaria viridis): 0 (Herbicidal ratio of 5% or lower (almost no effect))
- f: beet, effect on crop (criteria 0-5) (beet): 0 (Herbicidal ratio of 5% or lower (almost no effect))
- R: Veronica persica, herbicidal effect (criteria 0-5) (Veronica persica): 0 (Herbicidal ratio of 5% or lower (almost no effect))
- O: Chenopodium album, herbicidal effect (criteria 0-5) (Chenopodium album): 0 (Herbicidal ratio of 5% or lower (almost no effect))
- g: rapeseed, effect on crop (criteria 0-5) (rapeseed): 0 (Herbicidal ratio of 5% or lower (almost no effect))
- c: corn, effect on crop (criteria 0-5) (corn): 0 (Herbicidal ratio of 5% or lower (almost no effect))
- b: directly sowed rice plant, effect on crop (criteria 0-5) (rice plant): 0 (Herbicidal ratio of 5% or lower (almost no effect))
- Q: Galium spurium, herbicidal effect (criteria 0-5) (Galium spurium): 0 (Herbicidal ratio of 5% or lower (almost no effect))
- J: Alopecurus myosuroides, herbicidal effect (criteria 0-5) (Alopecurus myosuroides): 1 (Herbicidal ratio of 5% or higher and lower than 20%)
- P: Stellaria media, herbicidal effect (criteria 0-5) (Stellaria media): 0 (Herbicidal ratio of 5% or lower (almost no effect))
- K: Lolium multiflorum Lam., herbicidal effect (criteria 0-5) (Lolium multiflorum Lam.): 1 (Herbicidal ratio of 5% or higher and lower than 20%)
- F: Digitaria ciliaris, herbicidal effect (criteria 0-5) (Digitaria ciliaris): 0 (Herbicidal ratio of 5% or lower (almost no effect))
- M: Abutilon theophrasti, herbicidal effect (criteria 0-5) (Abutilon theophrasti): 0 (Herbicidal ratio of 5% or lower (almost no effect))
- L: Apera spica-venti, herbicidal effect (criteria 0-5) (Apera spica-venti): 0 (Herbicidal ratio of 5% or lower (almost no effect))
- I: Avena fatua, herbicidal effect (criteria 0-5) (Avena fatua): 0 (Herbicidal ratio of 5% or lower (almost no effect))
- e: wheat, effect on crop (criteria 0-5) (wheat): 0 (Herbicidal ratio of 5% or lower (almost no effect))
- d: soybean, effect on crop (criteria 0-5) (soybean): 0 (Herbicidal ratio of 5% or lower (almost no effect))
- N: Amaranthus retroflexus, herbicidal effect (criteria 0-5) (Amaranthus retroflexus): 0 (Herbicidal ratio of 5% or lower (almost no effect))

Compound: CON=C(C)CC1CC(OC)=C(c2c(C)cc(-c3ccc(SC)cc3)cc2C)C1=O (mixture of isomers) [6-021]
- G: Setaria viridis, herbicidal effect grade (Setaria viridis): 3 (Herbicidal ratio of 40% or higher and lower than 70%)
- f: beet, effect on crop grade (beet): 0 (Herbicidal ratio of 5% or lower (almost no effect))
- R: Veronica persica, herbicidal effect grade (Veronica persica): 0 (Herbicidal ratio of 5% or lower (almost no effect))
- O: Chenopodium album, herbicidal effect grade (Chenopodium album): 0 (Herbicidal ratio of 5% or lower (almost no effect))
- g: rapeseed, effect on crop grade (rapeseed): 3 (Herbicidal ratio of 40% or higher and lower than 70%)
- c: corn, effect on crop grade (corn): 0 (Herbicidal ratio of 5% or lower (almost no effect))
- b: directly sowed rice plant, effect on crop grade (rice plant): 0 (Herbicidal ratio of 5% or lower (almost no effect))
- Q: Galium spurium, herbicidal effect grade (Galium spurium): 0 (Herbicidal ratio of 5% or lower (almost no effect))
- J: Alopecurus myosuroides, herbicidal effect grade (Alopecurus myosuroides): 3 (Herbicidal ratio of 40% or higher and lower than 70%)
- P: Stellaria media, herbicidal effect grade (Stellaria media): 0 (Herbicidal ratio of 5% or lower (almost no effect))
- K: Lolium multiflorum Lam., herbicidal effect grade (Lolium multiflorum Lam.): 5 (Herbicidal ratio of 90% or more (almost completely withered))
- F: Digitaria ciliaris, herbicidal effect grade (Digitaria ciliaris): 0 (Herbicidal ratio of 5% or lower (almost no effect))
- M: Abutilon theophrasti, herbicidal effect grade (Abutilon theophrasti): 0 (Herbicidal ratio of 5% or lower (almost no effect))
- I: Avena fatua, herbicidal effect grade (Avena fatua): 1 (Herbicidal ratio of 5% or higher and lower than 20%)
- e: wheat, effect on crop grade (wheat): 0 (Herbicidal ratio of 5% or lower (almost no effect))
- d: soybean, effect on crop grade (soybean): 0 (Herbicidal ratio of 5% or lower (almost no effect))
- N: Amaranthus retroflexus, herbicidal effect grade (Amaranthus retroflexus): 0 (Herbicidal ratio of 5% or lower (almost no effect))
